ChEMBL document CHEMBL5729324, “Aromatic heterocyclic substituted olefin compound, preparation method for same, pharmaceutical composition of same, and applications thereof” (2022)

target: T1, TGF-beta receptor type-1 (Homo sapiens, UniProt P36897); assay: Enzyme Activity Inhibition: 1. Preparation of a 1× kinase buffer: 40 mM Tris (pH 7.5), 20 mM MgCl2, 0.10% BSA, 1 mM DTT.2. Compound preparation: The final detection concentration of the compound was 10 μM, which was prepared to a 100-fold concentration, i.e., 1 mM. 100 μL of the 100-fold compound was added in the second well of the 384-well plate, and 60 μL of 100% DMSO was added to the other wells. […] 50 nL of the compound was transferred to the reaction plate with echo.3. Kinase reaction: The kinase was added to a 1× kinase buffer to form a 2× enzyme solution. […] The polypeptide TGFbR1 (purchased from Signal Chem, catalog number T36-58) and ATP were added to a 1× kinase buffer to form a 2× substrate solution. The final concentration of the substrate solution was peptide TGFbR1 0.1 mg/mL, ATP 7 μM. 2.5 μL of the 2× enzyme solution was added to the 384-well reaction plate (there was already 50 nL of 100% DMSO dissolved compound), and a 1× kinase buffer was added to a negative control well. The reaction solution was incubated at room temperature for 10 minutes. 2.5 μL of 2× substrate solution was added to the 384-well reaction plate. The 384-well plate was covered and incubated at 30° C. for 1 hour. ADP-Glo reagent (purchased from Promege, catalog number v9102) was equilibrated to room temperature. 5 μL of ADP-Glo reagent was transferred to the reaction well of the 384-well plate to stop the reaction.4. Detection of reaction results: 10 μL of kinase detection reagent was transferred to each well, shaken for 1 minute, and let stand at room temperature for 30 minutes. The sample luminescence value was read at Synegy.
T1 sequence (P36897 whole entry): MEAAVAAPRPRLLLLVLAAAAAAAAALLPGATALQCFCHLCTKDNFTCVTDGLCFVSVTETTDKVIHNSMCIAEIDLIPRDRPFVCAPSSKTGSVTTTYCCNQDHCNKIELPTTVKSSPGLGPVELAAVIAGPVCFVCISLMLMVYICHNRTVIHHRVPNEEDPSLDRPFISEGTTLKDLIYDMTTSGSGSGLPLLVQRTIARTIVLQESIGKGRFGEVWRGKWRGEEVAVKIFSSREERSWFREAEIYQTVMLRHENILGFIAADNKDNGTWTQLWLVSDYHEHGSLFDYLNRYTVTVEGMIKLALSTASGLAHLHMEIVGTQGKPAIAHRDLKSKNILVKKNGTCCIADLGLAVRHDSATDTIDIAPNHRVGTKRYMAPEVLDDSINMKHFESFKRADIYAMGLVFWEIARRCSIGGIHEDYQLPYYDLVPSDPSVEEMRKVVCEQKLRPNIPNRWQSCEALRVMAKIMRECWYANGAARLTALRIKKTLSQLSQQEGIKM

Compound | IC50 [nM]
Cc1ccc(F)c(/C=C\c2ccc3ncc(C(N)=O)n3c2)n1 | 8.5
COC(=O)/C(=C/c1cccc(C)n1)c1ccc2ncc(C(N)=O)n2c1 | 7.4
CNC(=O)/C(=C/c1cccc(C)n1)c1ccc2ncc(C(N)=O)n2c1 | 207
CCOC(=O)c1cnc2ccc(/C=C\c3cccc(OC)n3)cn12 | 56
Cc1cccc(/C=C\c2ccc3ncc(-c4nnn[nH]4)n3c2)n1 | 21
COc1cccc(/C=C\c2ccc3ncc(C(N)=O)n3c2)n1 | 15
Cc1cccc(/C=C/c2ccc3ncc(C(N)=O)n3c2)n1 | 372
Cc1cccc(/C=C(/C(N)=O)c2ccc3ncc(C(N)=O)n3c2)n1 | 328
Cc1cccc(/C=C\c2ccc3ncc(C(=O)NCCN4CCOCC4)n3c2)n1 | 44
Cc1cccc(/C=C(/C(=O)N2CCCCC2)c2ccc3ncc(C(N)=O)n3c2)n1 | 58
Cc1csc(/C=C\c2ccc3ncc(C(N)=O)n3c2)n1 | 33
Cc1cccc(/C=C(/C(=O)N2CCCCC2)c2ccc3ncc(C#N)n3c2)n1 | 4950
Cc1cccc(/C=C\c2ccc3ncc(C#N)n3c2)n1 | 25
